Experimental data as given in patent publication US9006221B2, “Method of modulating ship activity” (H. Lee Moffitt Cancer Center and Reserach Institute, Inc., priority 2008, dated 2015).

System: Mac1+Gr1+ myeloid immunoregulatory cells
Experiment: FACS quantitation of Mac1+Gr1+ myeloid suppressor (MySC/MIR) cells in spleen and lymph node of treated mice
Format: in vivo, mouse
Conditions: for number of Mac1+Gr1+ MySC (MDSC): daily injection at 125 μM for 7 days; for number of MIR cells: daily i.p. injection at 60 μM for 7 days
Experimental: FACS quantitation of Mac1^+Gr1^+ Myeloid-Derived Suppressor Cells (Mac1^+Gr1^+ MySC) (A,B) and FoxP3^+CD4^+CD25^+ Treg cells (C,D) in spleen and lymph node of C57BL6 mice treated with NSC13480, vehicle or non-manipulated mice (Normal). ***p<0.001; *p<0.05.
In addition, both donor and host Treg cells can also limit or abrogate GvHD. […] (Paraiso, K. H., et al. 2007. J Immunol 178:2893). […] Adult mice were treated for 7 days with a daily injection of NSC13480 at 125 μM. The frequency of MySC and Treg cells was tested in the spleens of mice treated with NSC13480, the vehicle used for delivery of NSC 13480 and normal, untreated mice.
Expansion of the Mac1^+Gr1^+ MIR cell compartment can suppress GvHD. [Ghansah T, et al., J Immunol (2004) 173(12):7324-7330; Paraiso K H, et al., J Immunol (2007) 178(5):2893-2900; MacDonald K P, et al., J Immunol (2005) 174(4):1841-1850] Thus, the ability 3α-aminocholestane to expand the MIR compartment in peripheral lymphoid tissues, where GvHD and organ transplant rejection are primed, was tested. Adult mice were treated for 7 days with a daily intraperitoneal (i.p.) injection of 3α-aminocholestane at 60 μM. We then compared the frequency of MIR cells in the spleens and LN of mice treated with 3α-aminocholestane to that of control mice treated with either their respective vehicles or to unmanipulated mice. […] Thus, consistent with the findings in mice genetically ablated for SHIP1 expression during adult physiology [Paraiso K H, et al., J Immunol (2007) 178(5):2893-2900], inhibition of SHIP1 activity in adult mice expands the MIR cell compartment in peripheral lymphoid tissues.
Antibody staining and flow cytometry (Examples 1-6): Anti-CD16/32 was co-incubated with the samples to block Fc receptor binding. Antibodies used for staining included: NK1.1 (PK136); CD3e (145-2C11); Ly49G2 (4D11); Gr-1 (RB6-8C5); Mac-1(M1/70); CD11c (HL3); CD4 (GK1.5); CD25 (PC61) and were obtained from BD Pharmingen (San Jose, Calif.). FoxP3 (FJK-16s) was purchased from eBioScience (San Diego, Calif.). All samples were acquired on a FACSCalibur and analyzed using FlowJo8.7.1. For viable staining, dead cells were excluded from the analysis following cytometer acquisition of data by exclusion of the 7AAD dye. For staining of FoxP3, viable cells were first stained for extacellular markers followed by fixation and permeabilization to stain for the intracellular FoxP3.
Use of SHIP1 inhibitory compounds for in vitro and in vivo studies: For in vitro studies 3α-aminocholestane was suspended in 100% ethanol. […]
Antibody staining and flow cytometry (Examples 7-9): Anti-CD16/32 was incubated with the samples to block Fc receptor binding. […] All samples were acquired on a FACSCalibur and analyzed using FlowJo8.7.1. […]

| Compound | number of Mac1+Gr1+ MySC (MDSC) (lymph node) | number of Mac1+Gr1+ MySC (MDSC) (spleen) | number of MIR cells (lymph node) | number of MIR cells (spleen) |
| --- | --- | --- | --- | --- |
| OC(c1cc(-c2ccccc2)nc2c1ccc1ccccc12)C1CCCCN1 (stereo not shown) [NSC13480, (2-phenylbenzo[h]quinolin-4-yl)-piperidin-2-ylmethanol] | increased significantly | increased significantly |  |  |
| CC(C)CCC[C@@H](C)[C@H]1CC[C@H]2[C@@H]3CC[C@H]4C[C@H](N)CC[C@]4(C)[C@H]3CC[C@]12C [NSC23922, (3R,5S,8R,9S,10S,13R,14S,17R)-10,13-dimethyl-17-[(2R)-6-methylheptan-2-yl]-2,3,4,5,6,7,8,9,11,12,14,15,16,17-tetradecahydro-1H-cyclopenta[a]phenanthren-3-amine] |  |  | increased significantly | increased significantly |
